By melting point is commonly meant the temperature, or range, at which the solid turns liquid.

The record followed here is patent US20070249620A1, “Urea Derivative” (priority 2004, published 2007).

In one data set the target is T1, mouse DGAT1 (Mus musculus, UniProt Q9Z2A7).
T1 construct: made in house; host or cells: insect cells (High Five, Sf9, Sf21, etc.), baculovirus expression system (Invitrogen)
T1 sequence (Q9Z2A7 1-498): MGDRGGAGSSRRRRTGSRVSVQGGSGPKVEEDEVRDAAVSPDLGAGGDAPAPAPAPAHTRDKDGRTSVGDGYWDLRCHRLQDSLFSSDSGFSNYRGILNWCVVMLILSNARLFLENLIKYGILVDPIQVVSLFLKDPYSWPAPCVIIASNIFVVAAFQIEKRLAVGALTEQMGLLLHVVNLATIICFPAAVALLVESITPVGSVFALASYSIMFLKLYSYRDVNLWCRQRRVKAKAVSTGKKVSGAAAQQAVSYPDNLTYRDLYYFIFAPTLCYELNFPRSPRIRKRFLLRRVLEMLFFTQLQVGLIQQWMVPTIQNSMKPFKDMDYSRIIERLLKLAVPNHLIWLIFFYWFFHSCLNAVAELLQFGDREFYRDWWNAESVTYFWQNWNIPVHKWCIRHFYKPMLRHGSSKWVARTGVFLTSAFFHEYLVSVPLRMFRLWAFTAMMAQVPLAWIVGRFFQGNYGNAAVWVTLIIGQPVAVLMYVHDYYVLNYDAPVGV
The data set can be described thus: DGAT1 inhibitory effect test (microsome fraction, [14C]-oleoyl-CoA, triglyceride radioactivity by TLC). The class given is biochemical. The settings on record: 0.5 h; concentration of the test compound 0.1 μg/ml; mouse DGAT1 microsomes, 23° C., 30 minutes; read-out: Inhibitory ratio. As for the experimental part:
The cDNA which encodes mouse DGAT1 was cloned from a mouse cDNA library by polymerase chain reaction (hereinafter referred to as “PCR”) and introduced into an insect cell virus vector (baculovirus expression system, Invitrogen). After insect cells (High Five, Sf9, Sf21, etc., Invitrogen) were infected with the virus, the cells were collected in buffer A [0.1M sucrose, 50 mM KCl, 40 mM potassium phosphate (pH 7.4), 30 mM EDTA, 1% Protease inhibitor cocktail (SIGMA, P-8340)] and crushed with a Polytron homogenizer. The supernatant obtained by subjecting the homogenate to low speed centrifugal processing (10,000 ×g, 30 minutes) was further subjected to higher-speed centrifugal processing (100,000 ×g, 60 minutes) and the precipitate was resuspended in buffer A as the microsome fraction and used as DGAT1 enzyme. The DGAT1 enzyme was divided into small volumes and stored at −80° C.
(2) DGAT1 Inhibitory Effect Test
The reaction liquid of the following composition [175 mM Tris-HCl (pH 8.0), 8 mM MgCl2, 1 mg/ml BSA, 0.5 mM 1,2-dioleoyl-sn-glycerol (EtOH solution of 10-fold concentration, 10% added), 30 μM[14C]-oleoyl-CoA (about 50 mCi/mmol), 0.5% triton X-100, DGAT1 enzyme (10 μg) obtained in Test Example 1(1), test compound or vehicle (DMSO/MeOH, 7:3 solution, 5% added), total volume 50 μl] was incubated at room temperature (23° C.) for 30 minutes. A reaction terminating solution (70 μl) consisting of isopropanol/1-heptane/water (80:20:2, v/v/v) was added to the reaction solution and stirred, and subsequently stirred with water (30 μl) and 1-heptane (100 μl). The 1-heptane layer (50 μl) was spotted onto a TLC plate and developed with a developing solvent consisting of 1-hexane/diethyl ether/acetic acid (85:15:1, v/v/v). Radioactivity of triglyceride fraction was quantified by BAS2000 bio image analyzer (Fuji Film) and the inhibitory effect of the test compounds was calculated by the following formula through comparison with control. Here, radioactivity at no reaction (0 minutes incubation) was assumed as background. Inhibitory ratio=100−[(Radioactivity when test compound was added)−(Background)]/[(Radioactivity by control)−(Background)]×100

With `CCCCc1ccc(NC(=O)N2CCN(c3ccc(NC(=O)Nc4cc(C)ccc4OC)cc3)CC2)c(C)c1` [Example 75, 4-{4-[3-(2-methoxy-5-methyl-phenyl)-ureido]-phenyl}-piperazine-1-carboxylic acid (4-butyl-2-methyl-phenyl)-amide], the melting point lay within 172 to 173 °C. In addition, at mouse DGAT1, the inhibition at 0.1 µg/mL is at least 50%.

Regarding `COc1ccc(C)cc1NC(=O)Nc1ccc(N2CCN(C(=O)Nc3ccc(C)cc3Cl)CC2)cc1` [Example 76, 4-{4-[3-(2-methoxy-5-methyl-phenyl)-ureido]-phenyl}-piperazine-1-carboxylic acid (2-chloro-4-methyl-phenyl)-amide], the melting point is 186 to 187 °C. The inhibition at 0.1 µg/mL at mouse DGAT1 was at least 50%.

The molecule `COc1ccc(Cl)cc1NC(=O)Nc1ccc(N2CCN(C(=O)Nc3c(F)cccc3F)CC2)cc1` [Example 77, 4-{4-[3-(5-chloro-2-methoxy-phenyl)-ureido]-phenyl}-piperazine-1-carboxylic acid (2,6-difluoro-phenyl)-amide] gave a melting point of 230 to 232 °C. Also, on mouse DGAT1, the inhibition at 0.1 µg/mL is at least 50%.

The molecule `COc1ccc(Cl)cc1NC(=O)Nc1ccc(N2CCN(C(=O)Nc3ccccc3Cl)CC2)cc1` [Example 78, 4-{4-[3-(5-chloro-2-methoxy-phenyl)-ureido]-phenyl}-piperazine-1-carboxylic acid (2-chloro-phenyl)-amide] registered a melting point of 231 to 233 °C. The inhibition at 0.1 µg/mL at mouse DGAT1 was at least 50%.

In turn, `COc1ccc(Cl)cc1NC(=O)Nc1ccc(N2CCN(C(=O)Nc3c(C)cccc3Cl)CC2)cc1` [Example 79, 4-{4-[3-(5-chloro-2-methoxy-phenyl)-ureido]-phenyl}-piperazine-1-carboxylic acid (2-chloro-6-methyl-phenyl)-amide] had a melting point of 225 to 227 °C. In addition, the inhibition at 0.1 µg/mL at mouse DGAT1 was at least 50%.

`CCOc1ccccc1NC(=O)Nc1ccc(N2CCN(C(=O)Nc3ccccc3C(F)(F)F)CC2)cc1` [Example 80, 4-{4-[3-(2-ethoxy-phenyl)-ureido]-phenyl}-piperazine-1-carboxylic acid (2-trifluoromethyl-phenyl)-amide] displayed a melting point of 201 to 203 °C. Moreover, the inhibition at 0.1 µg/mL on mouse DGAT1 is at least 50%.

The molecule `CCOc1ccccc1NC(=O)Nc1ccc(N2CCN(C(=O)Nc3ccccc3C)CC2)cc1` [Example 81, 4-{4-[3-(2-ethoxy-phenyl)-ureido]-phenyl}-piperazine-1-carboxylic acid o-tolylamide] registered a melting point of 206 to 208 °C. Further, the inhibition at 0.1 µg/mL at mouse DGAT1 is at least 50%.

`CCOc1ccccc1NC(=O)Nc1ccc(N2CCN(C(=O)Nc3c(C)cccc3Cl)CC2)cc1` [Example 82, 4-{4-[3-(2-ethoxy-phenyl)-ureido]-phenyl}-piperazine-1-carboxylic acid (2-chloro-6-methyl-phenyl)-amide] came in with a melting point of 215 to 217 °C. The inhibition at 0.1 µg/mL on mouse DGAT1 was at least 50%.

With `CCOc1ccc(C)cc1NC(=O)Nc1ccc(N2CCN(C(=O)Nc3ccccc3C(F)(F)F)CC2)cc1` [Example 83, 4-{4-[3-(2-ethoxy-5-methyl-phenyl)-ureido]-phenyl}-piperazine-1-carboxylic acid (2-trifluoromethyl-phenyl)-amide], the melting point fell in the range of 219 to 220 °C. In addition, the inhibition at 0.1 µg/mL at mouse DGAT1 was at least 50%.

`CCOc1ccc(C)cc1NC(=O)Nc1ccc(N2CCN(C(=O)Nc3ccccc3C)CC2)cc1` [Example 84, 4-{4-[3-(2-ethoxy-5-methyl-phenyl)-ureido]-phenyl}-piperazine-1-carboxylic acid o-tolylamide] gave a melting point of 190 to 192 °C. At mouse DGAT1, the inhibition at 0.1 µg/mL is at least 50%.

Regarding `CCOc1ccc(C)cc1NC(=O)Nc1ccc(N2CCN(C(=O)Nc3c(C)cccc3Cl)CC2)cc1` [Example 85, 4-{4-[3-(2-ethoxy-5-methyl-phenyl)-ureido]-phenyl}-piperazine-1-carboxylic acid (2-chloro-6-methyl-phenyl)-amide], the melting point is 157 to 159 °C. For the same molecule, on mouse DGAT1, the inhibition at 0.1 µg/mL is at least 50%.

On to `COc1ccc(C)cc1NC(=O)Nc1ccc(N2CCN(C(=O)Nc3ccc(Cl)cc3C(F)(F)F)CC2)cc1` [Example 86, 4-{4-[3-(2-methoxy-5-methyl-phenyl)-ureido]-phenyl}-piperazine-1-carboxylic acid (4-chloro-2-trifluoromethyl-phenyl)-amide], for which the melting point was 186 to 187 °C. Moreover, the inhibition at 0.1 µg/mL on mouse DGAT1 is at least 50%.

Molecule `COc1ccc(C)cc1NC(=O)Nc1ccc(N2CCN(C(=O)Nc3ccc(F)cc3C(F)(F)F)CC2)cc1` [Example 87, 4-{4-[3-(2-methoxy-5-methyl-phenyl)-ureido]-phenyl}-piperazine-1-carboxylic acid (4-fluoro-2-trifluoromethyl-phenyl)-amide] registered a melting point of 172 to 174 °C. Also, on mouse DGAT1, the inhibition at 0.1 µg/mL was at least 50%.

In turn, `COc1ccc(C)cc1NC(=O)Nc1ccc(N2CCN(C(=O)Nc3c(C)cc(C)cc3C)CC2)cc1` [Example 88, 4-{4-[3-(2-methoxy-5-methyl-phenyl)-ureido]-phenyl}-piperazine-1-carboxylic acid (2,4,6-trimethyl-phenyl)-amide] came in with a melting point of 215 to 217 °C. Also, the inhibition at 0.1 µg/mL on mouse DGAT1 was at least 50%.

`CCOc1ccc(F)cc1NC(=O)Nc1ccc(N2CCN(C(=O)Nc3ccccc3C(F)(F)F)CC2)cc1` [Example 89, 4-{4-[3-(2-ethoxy-5-fluoro-phenyl)-ureido]-phenyl}-piperazine-1-carboxylic acid (2-trifluoromethyl-phenyl)-amide] returned a melting point of 197 to 199 °C. Also, at mouse DGAT1, the inhibition at 0.1 µg/mL is at least 50%.

Molecule `CCOc1ccc(F)cc1NC(=O)Nc1ccc(N2CCN(C(=O)Nc3ccccc3C)CC2)cc1` [Example 90, 4-{4-[3-(2-ethoxy-5-fluoro-phenyl)-ureido]-phenyl}-piperazine-1-carboxylic acid o-tolylamide] had a melting point of 186 to 187 °C. For the same molecule, on mouse DGAT1, the inhibition at 0.1 µg/mL was at least 50%.

In the case of `CCOc1ccc(F)cc1NC(=O)Nc1ccc(N2CCN(C(=O)Nc3c(C)cccc3Cl)CC2)cc1` [Example 91, 4-{4-[3-(2-ethoxy-5-fluoro-phenyl)-ureido]-phenyl}-piperazine-1-carboxylic acid (2-chloro-6-methyl-phenyl)-amide], the melting point fell in the range of 197 to 199 °C. Further, the inhibition at 0.1 µg/mL on mouse DGAT1 was at least 50%.

As for `CCOc1ccc(F)cc1NC(=O)Nc1ccc(N2CCN(C(=O)Nc3c(C)cccc3C)CC2)cc1` [Example 92, 4-{4-[3-(2-ethoxy-5-fluoro-phenyl)-ureido]-phenyl}-piperazine-1-carboxylic acid (2,6-dimethyl-phenyl)-amide], the melting point was 205 to 206 °C. Moreover, the inhibition at 0.1 µg/mL at mouse DGAT1 is at least 50%.

In turn, `CCOc1ccc(F)cc1NC(=O)Nc1ccc(N2CCN(C(=O)Nc3c(F)cccc3C(F)(F)F)CC2)cc1` [Example 93, 4-{4-[3-(2-ethoxy-5-fluoro-phenyl)-ureido]-phenyl}-piperazine-1-carboxylic acid (2-fluoro-6-trifluoromethyl-phenyl)-amide] displayed a melting point of 153 to 155 °C. Moreover, the inhibition at 0.1 µg/mL on mouse DGAT1 is at least 50%.

Molecule `CCOc1ccc(F)cc1NC(=O)Nc1ccc(N2CCN(C(=O)Nc3c(Cl)cccc3Cl)CC2)cc1` [Example 94, 4-{4-[3-(2-ethoxy-5-fluoro-phenyl)-ureido]-phenyl}-piperazine-1-carboxylic acid (2,6-dichloro-phenyl)-amide] registered a melting point of 212 to 214 °C. Further, the inhibition at 0.1 µg/mL at mouse DGAT1 is at least 50%.
